Test results taken from the supplement of paper PMC10883282.

How the values were obtained:
Test in all cases: relative viability vs DMSO control (72 h) (fraction); higher = more viable cells
[1] = test system: HS729
Method in brief: (§1)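 Relative viability is percent growth read by ATPLite and averaged over up to triplicate wells. Sarcoma cells were seeded in 384-well plates to reach 80–90% confluence and given 2.5 µl of serially diluted compound after 24 h, from source plates of 10 mM to 0.0002 mM. Incubation lasted 72 h at 37 °C, 5% CO2, with 0.1% DMSO vehicle and a 5 µM positive control, and the data were rescaled so 1 equals full and 0 equals none.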

[2] = test system: MES-SA
Method in brief: as §1

[3] = test system: RD
Method in brief: as §1

[4] = test system: SK-LMS-1
Method in brief: as §1

[5] = test system: VA-ES-BJ
Method in brief: as §1

CC(=O)c1c(C)c2cnc(Nc3ccc(N4CCNCC4)cn3)nc2n(C2CCCC2)c1=O [Palbociclib]
relative viability
Conditions	[1]	[2]	[3]	[4]	[5]
0.00017 µM	1.05	0.965	1.03	1.05	1.1
0.00051 µM	1.02	0.977	1.08	1.04	1.1
0.00152 µM	1.06	0.975	1.11	1.08	1.081
0.00457 µM	1.01	0.936	1.09	1.05	1.08
0.01372 µM	1.05	0.9398	1.08	1.06	0.99
0.04115 µM	0.965	0.852	1.09	0.97	0.9367
0.1235 µM	0.987	0.782	1.05	0.998	0.807
0.3704 µM	0.984	0.678	1.01	0.961	0.666
1.111 µM	0.844	0.641	0.968	1	0.584
3.333 µM	0.849	0.521	0.905	1.06	0.547
10 µM	0.933	0.366	0.276	0.798	0.499

Cn1cnc2c(F)c(Nc3ccc(Br)cc3Cl)c(C(=O)NOCCO)cc21 [Selumetinib]
relative viability
Conditions	[1]	[2]	[3]	[4]	[5]
0.00017 µM	0.898	0.871	1.06	0.942	0.9961
0.00051 µM	0.929	0.89	1.04	0.955	0.992
0.00152 µM	0.869	0.855	1.04	0.953	0.985
0.00457 µM	0.894	0.862	0.977	0.945	0.964
0.01372 µM	0.896	0.847	0.931	0.875	0.947
0.04115 µM	0.902	0.844	0.875	0.708	0.877
0.1235 µM	0.849	0.754	0.749	0.6	0.8465
0.3704 µM	0.843	0.779	0.703	0.601	0.836
1.111 µM	0.846	0.76	0.632	0.5484	0.808
3.333 µM	0.82	0.741	0.593	0.491	0.78
10 µM	0.794	0.694	0.543	0.37	0.742

CCc1nc(C(N)=O)c(Nc2ccc(N3CCC(N4CCN(C)CC4)CC3)c(OC)c2)nc1NC1CCOCC1 [Gilteritinib]
relative viability
Conditions	[1]	[2]	[3]	[4]	[5]
60 pM	0.9885	0.954	1.06	1.03	0.988
0.00018 µM	0.928	0.936	1.06	1.01	0.986
0.00053 µM	0.924	0.921	1.07	1.01	0.993
0.0016 µM	0.875	0.922	1.08	1.03	1.02
0.0048 µM	0.828	0.904	1.08	0.985	1
0.014 µM	0.797	0.947	1.07	1.018	0.997
0.043 µM	0.74	0.904	1.01	0.977	1.04
0.13 µM	0.63	0.89	0.829	0.929	0.937
0.389 µM	0.47	0.76	0.516	0.765	0.713
1.167 µM	0.357	0.51	0.363	0.504	0.433
3.5 µM	0.322	0.393	0.32	0.398	0.3

COC(=O)c1ccc2c(c1)NC(=O)/C2=C(\Nc1ccc(N(C)C(=O)CN2CCN(C)CC2)cc1)c1ccccc1 [Nintedanib]
relative viability
Conditions	[1]	[2]	[3]	[4]	[5]
0.00017 µM	0.981	0.933	1.03	1.16	1.04
0.00051 µM	1	0.93	1.03	1.13	1.06
0.00152 µM	1.01	0.942	0.989	1.13	1.04
0.00457 µM	0.99	0.928	1.01	1.09	1.06
0.01372 µM	1.04	0.898	0.977	1.11	1.05
0.04115 µM	0.973	0.944	0.97	1.08	1.045
0.1235 µM	0.929	0.934	0.96	1.073	1.05
0.3704 µM	0.863	0.958	0.965	1.07	1.03
1.111 µM	0.738	0.92	0.873	1.03	0.993
3.333 µM	0.626	0.804	0.777	0.932	0.994
10 µM	0.119	0.583	0.0216	0.145	0.803

COc1cc2ncnc(Nc3ccc(F)c(Cl)c3)c2cc1OCCCN1CCOCC1 [Gefitinib]
relative viability
Conditions	[1]	[2]	[3]	[4]	[5]
0.00017 µM	0.9733	0.97	1.03	1.07	1.05
0.00051 µM	0.97	0.948	1.04	1.09	1.05
0.00152 µM	1.03	0.959	1.03	1.05	1.074
0.00457 µM	0.947	0.952	1.04	1.08	1.04
0.01372 µM	1.01	0.937	0.995	1.07	1.04
0.04115 µM	1.03	0.962	1.01	1.08	1.05
0.1235 µM	1	0.969	1.03	1.06	1.05
0.3704 µM	1.01	0.969	1.01	1.04	1.06
1.111 µM	0.958	0.925	1.05	1.05	1.06
3.333 µM	0.853	0.739	1.05	0.902	1.04
10 µM	0.621	0.4455	0.18	0.108	0.75
